Data published in the supplement of paper PMC5908809.

Tests used:
[1] = test system: normal NK cells expanded with K562-aAPC; experiment: percent inhibition of viability; higher = more inhibition; conditions: 72 h, IL-2 2.5 ng/mL
Description: (§1)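 Drug sensitivity and resistance testing on K562-aAPC-expanded normal NK cells: 5 concentrations (10-fold steps over a 10,000-fold range), 72 h at 37 °C, viability by CellTiter-Glo normalised to DMSO and benzethonium chloride controls; DSS from the fitted curve.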

DERL-7 (IL-2 2.5 ng/mL) [2] = experiment: as above; conditions: 72 h
IMC-1 (IL-2 20 ng/mL) [3] = experiment: as above; conditions: 72 h
KAI3 (IL-2 2.5 ng/mL) [4] = experiment: as above; conditions: 72 h
KHYG-1 (IL-2 2.5 ng/mL) [5] = experiment: as above; conditions: 72 h
NK-92 (IL-2 2.5 ng/mL) [6] = experiment: as above; conditions: 72 h
NK-YS (IL-2 2.5 ng/mL) [7] = experiment: as above; conditions: 72 h
NKL (IL-2 2.5 ng/mL) [8] = experiment: as above; conditions: 72 h
SNK-6 (IL-2 2.5 ng/mL) [9] = experiment: as above; conditions: 72 h
YT (IL-2 2.5 ng/mL) [10] = experiment: as above; conditions: 72 h
[11] = test system: normal primary NK cells, pool 1 (3 donors) (IL-2 2.5 ng/mL); experiment: as above; conditions: 72 h
[12] = test system: normal primary NK cells, pool 1 (3 donors), resting (IL-2 0 ng/mL); experiment: as above; conditions: 72 h
[13] = test system: normal primary NK cells, pool 2 (3 donors) (IL-2 2.5 ng/mL); experiment: as above; conditions: 72 h
[14] = test system: normal primary NK cells, pool 3 (3 donors) (IL-2 2.5 ng/mL); experiment: as above; conditions: 72 h
[15] = test system: normal NK cells expanded with K562-aAPC; experiment: drug sensitivity score (DSS) (DSS units); higher = more sensitive; extreme values may be limits of the assay; conditions: 72 h; IL-2 2.5 ng/mL
Description: as §1

DERL-7 (IL-2 2.5 ng/mL) [16] = experiment: as above; conditions: 72 h
IMC-1 (IL-2 20 ng/mL) [17] = experiment: as above; conditions: 72 h
KAI3 (IL-2 2.5 ng/mL) [18] = experiment: as above; conditions: 72 h
KHYG-1 (IL-2 2.5 ng/mL) [19] = experiment: as above; conditions: 72 h
NK-92 (IL-2 2.5 ng/mL) [20] = experiment: as above; conditions: 72 h
NK-YS (IL-2 2.5 ng/mL) [21] = experiment: as above; conditions: 72 h
NKL (IL-2 2.5 ng/mL) [22] = experiment: as above; conditions: 72 h
SNK-6 (IL-2 2.5 ng/mL) [23] = experiment: as above; conditions: 72 h
YT (IL-2 2.5 ng/mL) [24] = experiment: as above; conditions: 72 h
[25] = test system: normal primary NK cells, pool 1 (3 donors) (IL-2 2.5 ng/mL); experiment: as above; conditions: 72 h
[26] = test system: normal primary NK cells, pool 1 (3 donors), resting (IL-2 0 ng/mL); experiment: as above; conditions: 72 h
[27] = test system: normal primary NK cells, pool 2 (3 donors) (IL-2 2.5 ng/mL); experiment: as above; conditions: 72 h
[28] = test system: normal primary NK cells, pool 3 (3 donors) (IL-2 2.5 ng/mL); experiment: as above; conditions: 72 h

O=c1[nH]c(=O)n([C@H]2C[C@H](O)[C@@H](CO)O2)cc1F [Floxuridine] (max concentration tested 10000 nM)
percent inhibition of viability [%]
Conditions	1 nM	10 nM	100 nM	1000 nM	10000 nM
DERL-7 (IL-2 2.5 ng/mL) [2]	-7.14	68.8	44.1	69.8	94.3
IMC-1 (IL-2 20 ng/mL) [3]	-2.91	-1.68	33.5	96.1	95.4
KAI3 (IL-2 2.5 ng/mL) [4]	-6.31	31.3	63.4	63.7	45.6
KHYG-1 (IL-2 2.5 ng/mL) [5]	0.05	58.9	96.8	99.1	95.1
NK-92 (IL-2 2.5 ng/mL) [6]	-16.2	25.2	72.5	82.6	78.8
NK-YS (IL-2 2.5 ng/mL) [7]	-4.95	13.6	73.5	84	78.7
NKL (IL-2 2.5 ng/mL) [8]	-14.5	15.7	48.8	68.5	82.9
SNK-6 (IL-2 2.5 ng/mL) [9]	15.3	9.27	54	91.8	89.4
YT (IL-2 2.5 ng/mL) [10]	-3.94	0.97	9.92	50.2	57.9
[1]	-4.55	-4.54	25.1	39.5	43.4
[11]	-6.27	-7.98	-5.58	6.75	5.43
[12]	-14.4	-13.5	-18.7	8.19	9.19
[13]	-16.1	-13.4	-7.65	-1.05	8.12
[14]	-14	-7.11	-9.62	-2.43	-3.12

Conditions	drug sensitivity score
DERL-7 (IL-2 2.5 ng/mL) [16]	25.9
IMC-1 (IL-2 20 ng/mL) [17]	22
KAI3 (IL-2 2.5 ng/mL) [18]	24
KHYG-1 (IL-2 2.5 ng/mL) [19]	37.2
NK-92 (IL-2 2.5 ng/mL) [20]	27.2
NK-YS (IL-2 2.5 ng/mL) [21]	25.9
NKL (IL-2 2.5 ng/mL) [22]	20.2
SNK-6 (IL-2 2.5 ng/mL) [23]	23.3
YT (IL-2 2.5 ng/mL) [24]	10.4
[15]	10.9
[25]	0
[26]	0
[27]	0
[28]	0

C[C@@H]1C[C@H]2O[C@@H]2/C=C\C=C\C(=O)Cc2c(Cl)c(O)cc(O)c2C(=O)O1 [Radicicol] (max concentration tested 10000 nM)
percent inhibition of viability [%]
Conditions	1 nM	10 nM	100 nM	1000 nM	10000 nM
DERL-7 (IL-2 2.5 ng/mL) [2]	-0.88	14.3	79.4	100	101
IMC-1 (IL-2 20 ng/mL) [3]	-2.78	3.67	0.43	101	101
KAI3 (IL-2 2.5 ng/mL) [4]	1.19	9.86	58.6	99.8	94.4
KHYG-1 (IL-2 2.5 ng/mL) [5]	0.9	2.76	13.1	101	110
NK-92 (IL-2 2.5 ng/mL) [6]	-1.96	-4.16	34.1	99.2	104
NK-YS (IL-2 2.5 ng/mL) [7]	3.72	7.15	24.6	93.4	99.7
NKL (IL-2 2.5 ng/mL) [8]	-1.4	4.63	30.1	85.8	81.6
SNK-6 (IL-2 2.5 ng/mL) [9]	8	13.2	49.9	96.8	78.6
YT (IL-2 2.5 ng/mL) [10]	-1.95	7.65	16.1	64.4	91.6
[1]	-4.44	1.88	51	98.6	80.6
[11]	5.96	-3.33	44.2	80.8	94.1
[12]	9.89	-3.46	22.4	41.1	75.4
[13]	-13.3	-1.53	60.7	82	91.3
[14]	-8.94	-10.4	38	82.1	91.5

Conditions	drug sensitivity score
DERL-7 (IL-2 2.5 ng/mL) [16]	28.9
IMC-1 (IL-2 20 ng/mL) [17]	18.1
KAI3 (IL-2 2.5 ng/mL) [18]	25.1
KHYG-1 (IL-2 2.5 ng/mL) [19]	20.2
NK-92 (IL-2 2.5 ng/mL) [20]	22.8
NK-YS (IL-2 2.5 ng/mL) [21]	20
NKL (IL-2 2.5 ng/mL) [22]	19.4
SNK-6 (IL-2 2.5 ng/mL) [23]	23.3
YT (IL-2 2.5 ng/mL) [24]	14.2
[15]	23.9
[25]	20.8
[26]	10.6
[27]	23.6
[28]	20.5
